Results: patent publication US4001414A, “1,3,4-Trimethyl-2-(3,4,5-trimethoxybenzyl)-1,2,5,6-tetrahydropyridine and analgesic composition and method using it” (priority 1974, dated 1977)

Experiments:
[1] = tested on: acetic acid-induced writhing; experiment: Analgesic activity, acetic acid-induced writhing technique; type: in vivo, albino I.C.R. Swiss mice; details: for No. of writhes (x ± M.S.E.): acetic acid 0.25 ml of 1% i.p. after 30 minutes, writhes counted in 20 minutes, p <0.001, control 112.2 ± 4.2, average value ± mean standard error; for analgesic activity (in words): as may be seen from Table B, mice
Protocol: The analgesic activity was investigated in albino I.C.R. Swiss mice, using the acetic acid-induced writhing technique. Groups each of 10 mice were assembled.
The analgesics were injected intraperitoneally, and after 30 minutes 0.25 ml of a 1% solution of acetic acid was injected intraperitoneally. A control group received only acetic acid. The numbers of writhes made by each mouse was counted in the 20 minutes following administration of the acetic acid.

[2] = Acute toxicity (LD50), i.p., method of Litchfield and Wilcoxon; details: mouse, in vivo, ip; I.C.R. Swiss mice, both sexes, 30 ± 2 g, intraperitoneal
Protocol: Acute toxicity studies were conducted in I.C.R. Swiss mice weighing 30 ± 2 g, of both sexes. The products were administered intraperitoneally (i.p.). The acute toxicity calculations were made by the method of Litchfield and Wilcoxon.

| Compound | No. of writhes (x ± M.S.E.) ([1]; 20 mg/kg i.p.) | analgesic activity (in words) ([1]; 20 mg/kg i.p.) | No. of writhes (x ± M.S.E.) ([1]; 25 mg/kg i.p.) | LD50 [2] |
| --- | --- | --- | --- | --- |
| COc1cc(CC2C(C)=C(C)CCN2C)cc(OC)c1OC (stereo not drawn) [Product I, 1,3,4-trimethyl-2-(3,4,5-trimethoxybenzyl)-1,2,5,6-tetrahydropyridine] | 74.5 ± 4.84 | have analgesic activity |  |  |
| CCC(=O)O[C@](Cc1ccccc1)(c1ccccc1)[C@H](C)CN(C)C [Dextropropoxyphene, reference compound] |  |  | 22.8 ± 4.74 |  |
| COc1cc(C[N+]2(C)CCC(C)=C(C)C2)cc(OC)c1OC.[Cl-] (stereo not drawn) [Product II, 1,3,4-trimethyl-1-(3,4,5-trimethoxybenzyl)-1,2,5,6-tetrahydropyridinium chloride] | 53.6 ± 4.7 | have analgesic activity |  | 77 mg/kg |
